Laboratory results reported in PMC2191296 (The Journal of Experimental Medicine, 1993).

Experiments:
[1] = Solubility of synthetic peptides in water; format: physicochemical; conditions: peptides dissolved in dH2O; insoluble ones reconstituted in 20% DMSO
mAb 34-5-8S = assay: Control: binding of free peptide to the immobilized 34-5-8S antibody surface; conditions: free peptide without H-2Dd at concentrations as high as 222 uM; SPR
H-2Dd = H-2Dd (Mus musculus, UniProt P01900); assay: Solution phase competition assay; format: binding; conditions: data not shown
H-2Dd, sequence (P01900 whole entry, looked up): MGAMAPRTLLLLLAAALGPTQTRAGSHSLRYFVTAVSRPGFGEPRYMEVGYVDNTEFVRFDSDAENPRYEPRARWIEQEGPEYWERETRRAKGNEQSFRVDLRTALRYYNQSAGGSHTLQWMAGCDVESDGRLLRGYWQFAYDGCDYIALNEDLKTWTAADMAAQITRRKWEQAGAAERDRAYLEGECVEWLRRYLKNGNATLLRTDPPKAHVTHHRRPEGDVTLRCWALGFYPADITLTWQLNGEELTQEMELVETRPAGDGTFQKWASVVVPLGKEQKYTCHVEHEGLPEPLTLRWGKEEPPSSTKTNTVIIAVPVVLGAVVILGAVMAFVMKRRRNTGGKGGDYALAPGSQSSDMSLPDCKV

solubility in water / aqueous solution [1] | Sequence | signal of free peptide on immobilized 34-5-8S (mAb 34-5-8S) [RU] | relative binding to H-2Dd (H-2Dd)
relative aqueous insolubility | SGPVALVNF [pD46B] |  | 
relative aqueous insolubility | SGPVALVNFI [pD46A] |  | 
 | AGPARAAAL [pD2359] | < 7 | binds better than pD239
